According to US6573045B1, “Methods and kits for discovery of RNA-binding compounds” (Ribotargets, Ltd., priority 1998, dated 2003):
“And” between values parts separate entries of the source, which are not always exact repeats. Equal entries are not always repeated. Ends that are not written are not given here. * marks the point of attachment. TAMRA = tetramethylrhodamine (fluorescent label); DABCYL = CN(C)c1ccc(/N=N/c2ccc(C(=O)*)cc2)cc1

Experiments:
GTPase-LHL RNA = assay: Dabcyl-peptide binding to Fam-labelled RNA (quenching), GTPase LHL; details: GTPase-LHL, 110 mM KCl
Text: (§1) A representative subset comprising 40 peptide sequences from the total of 243 possible sequences was synthesised and is shown in Table 6. The peptides from the library are: No. 3 (SEQ ID NO:11), 4 (SEQ ID NO:12), 5 (SEQ ID NO:13), 6 (SEQ ID NO:14), 7 (SEQ ID NO:15), 8 (SEQ ID NO:16), 9 (SEQ ID NO:17), 10 (SEQ ID NO:18), 11 (SEQ ID NO:19), 12 (SEQ ID NO:20), 13 (SEQ ID NO:21), 14 (SEQ ID NO:22), 15 (SEQ ID NO:23), 16 (SEQ ID NO:24), 17 (SEQ ID NO:25), 18 (SEQ ID NO:26), 19 (SEQ ID NO:27), 20 (SEQ ID NO:28), 21 (SEQ ID NO:29), 22 (SEQ ID NO:30), 23 (SEQ ID NO:31), 24 (SEQ ID NO:32), 25 (SEQ ID NO:33), 26 (SEQ ID NO:34), 27 (SEQ ID NO:35), 28 (SEQ ID NO:36), 29 (SEQ ID NO:37), 30 (SEQ ID NO:38), 31 (SEQ ID NO:39), 32 (SEQ ID NO:40), 33 (SEQ ID NO:41), 34 (SEQ ID NO:42), 35 (SEQ ID NO:43), 36 (SEQ ID NO:44), 37 (SEQ ID NO:45), 38 (SEQ ID NO:46), 39 (SEQ ID NO:47), 40 (SEQ ID NO:48), 41 (SEQ ID NO:49), 42 (SEQ ID NO:50). These peptides were assayed for their ability to bind to range of RNA sequences carrying fluorescein attached to the 5′ end, as shown in FIG. 25.
(§2) FIG. 26. presents binding data for the peptide sequence 5 (KKQKR) (SEQ ID NO: 13) and the 4 RNA sequences. Reactions (100 μl) containing Fam-labelled RNA (10 nM) were mixed with increasing concentrations of Dabcyl-labelled ADP-1 peptide (up to 250 nM) in 50 mM Tris/Cl, pH7.4, 20 mM or 110 mM KCl (as indicated), 5 μg/ml BSA, 0.01% Triton X-100, 1% DMSO. Fluorescence (excitation 490 nm/emission at 535 nm) was determined using a Victor plate reader.
(§3) Dissociation constants were determined by fitting a binding isotherm (1-site-binding) to the data using the equation:
(§4) Y=((Fmax−Fmin)−((Fmax−Fmin)*X/(Kd+X)))+Fmin
(§5) where Fmax is fluorescence in the absence of quencher, Fmin is fluorescence at saturation, and X is peptide concentration.

FAM-TAR RNA = assay: Quenching of FAM-TAR RNA by DABCYL-labelled ADP-1; type: binding, HIV; details: 20 nM FAM-TAR, FIG. 19
Procedure: It is also possible to place a fluorescent group on the RNA target and a quenching group on the reporter molecule. […] The DABCYL-ADP-1 was pre-treated in the presence of 1% TFA at room temperature for 5 minutes prior to dilution into binding buffer (0.01% Triton X-100, 5 μg/ml BSA, 1% DMSO, 50 mM Tris-HCl pH 7.6, 20 mM KCl) and incubated on ice prior to complex formation.
Reactions were equilibrated at room temperature for 15 minutes prior to analysis in the Wallac Victor2 plate reader. The reactions were excited at 485 nm and fluorescence emission recorded at 535 nm. The fluorescence emission signal of the 20 nM FAM-TAR is progressively quenched after addition of increasing amounts of DABCYL-ADP-1 peptide. The experimental data shown in FIG. 19 was analysed in GraphPad PRISMTM using a non linear regression fit for single site binding.

TAR bulge RNA = assay: Dabcyl-peptide binding to Fam-labelled RNA (quenching), TAR; set-up: species or system HIV; details: 110 mM KCl
Text: as §1, §2, §3, §4, §5

RRE RNA = assay: Dabcyl-peptide binding to Fam-labelled RNA (quenching), RRE; set-up: species or system HIV; details: RRE, 110 mM KCl
Text: as §1, §2, §3, §4, §5

ss-19mer RNA = assay: Dabcyl-peptide binding to Fam-labelled RNA (quenching), single stranded RNA; details: ss-19mer, 110 mM KCl
Text: as §1, §2, §3, §4, §5

DABCYL-RRE RNA = assay: Quenching of TAMRA-labelled Rev peptide by DABCYL-RRE RNA; type: binding, HIV; details: 20 nM TAMRA-Rev, increasing DABCYL-RRE, FIG. 21
Procedure: (§6) In the experiment shown in FIG. 21, 20 nM TAMRA-Rev was incubated with increasing concentrations of DABCYL-RRE. The TAMRA-Rev was pre-treated in the presence of 1% TFA at room temperature for 5 minutes prior to dilution in to storage buffer (0.01% Triton X-100, 5 μg/ml BSA, 1% DMSO, 50 mM Tris-HCl pH 8, 50 mM KCl) and incubated on ice prior to complex formation. Reactions were equilibrated at room temperature for 15 minutes prior to analysis in the Wallac Victor2 plate reader. The reactions were excited at 544 nm and fluorescence emission recorded at 570 nm. The fluorescence emission signal of the 20 nM TAMRA-Rev alone was subtracted from each signal obtained in the presence of increasing amounts of DABCYL-RRE and plotted as a function of DABCYL-RRE concentration (FIG. 21) in GraphPad PRISMTM using a non linear regression fit for single site binding.

DABCYL-TAR RNA = assay: Quenching of TAMRA-labelled Rev peptide by DABCYL-TAR RNA; type: binding, HIV; details: 20 nM TAMRA-Rev, increasing DABCYL-TAR, FIG. 22
Procedure: as §6, with “20” for “In the experiment shown in FIG. 21, 20”, “DABCYL-TAR.” for “DABCYL-RRE.”, “into” for “in to”, “DABCYL-TAR” for “DABCYL-RRE”, “22)” for “21)”

| Substance | Kd (GTPase-LHL RNA) | Kd (FAM-TAR RNA) | Kd (TAR bulge RNA) | Kd (RRE RNA) | Kd (ss-19mer RNA) | Kd (DABCYL-RRE RNA) | Kd (DABCYL-TAR RNA) |
| --- | --- | --- | --- | --- | --- | --- | --- |
| DABCYL-Phe-Thr-Thr-Lys-Ala-Leu-Gly-Ile-Ser-Tyr-Gly-Arg-Lys-Lys-Arg-Arg-Gln-Arg-Arg-Arg-Pro-Pro-Gln-Gly-Ser-Gln-Thr-His-Gln-Val-Ser-Leu-Ser-Lys-Gln ({DABCYL}-FTTKALGISYGRKKRRQRRRPPQGSQTHQVSLSKQ) [DABCYL-ADP-1] | 131 nM | 33 nM | 35 nM and 41 nM | 39 nM | 511 nM |  |  |
| TAMRA-Asp-Thr-Arg-Gln-Ala-Arg-Arg-Asn-Arg-Arg-Arg-Arg-Trp-Arg-Glu Arg-Gln-Arg ({TAMRA}-DTRQARRNRRRRWRERQR) [TAMRA-Rev] |  |  |  |  |  | 137 ± 23 nM | 11000 nM |
